Read-outs that look alike come from different tables or passages of the source.
Assays:
HepaRG spheroids = assay: Combined HCI (HCS) and cellular ATP 3D assay in HepaRG spheroids; settings: for HepaRG <25x Avg Cmax ATP / HepaRG <100x Avg Cmaxu ATP: ATP endpoint; for HepaRG <25x Avg Cmax ATP / HepaRG <25x Avg Cmax HCS / HepaRG <25x Avg Cmax All: cut-off <25x Avg Cmax; for HepaRG <100x Avg Cmaxu ATP / HepaRG <100x Avg Cmaxu HCS / HepaRG <100x Avg Cmaxu All: cut-off <100x Avg Cmaxu; for HepaRG <25x Avg Cmax HCS / HepaRG <100x Avg Cmaxu HCS: HCS endpoints; for HepaRG <25x Avg Cmax All: all endpoints (ATP and HCS); for HepaRG Cmax max All / HepaRG Cmax min All / HepaRG <10 uM All / HepaRG <100x Avg Cmaxu All: all endpoints; for HepaRG Cmax max All: Cmax max used; for HepaRG Cmax min All: Cmax min used; for HepaRG <10 uM All: cut-off <10 uM; for DILI prediction HepaRG spheroids (HCS-MEC): Microtissue model structural based (HCI), combined HCS and ATP, MEC < 25 × Cmax.tot cut-off
hLiMTs [1] = settings: cited from earlier work; for hLiMTs ATP <100uM: In vitro Assay, ref Proctor 2017; for hLiMTs/100xCmax, Proctor (2017) / hLiMTs/100uM, Proctor (2017): ATP, ref Proctor et al. 2017; for hLiMTs/100xCmax, Proctor (2017): IC50 < 100 × Cmax.tot; for hLiMTs/100uM, Proctor (2017): IC50 threshold 100 µM
[2] = cited from earlier work; for Assigned DILI category: Chen et al. 2016 or literature alignment, ref Chen et al. 2016
[3] = plasma free fraction; cited from earlier work
hLiMTs [4] = assay: Combined HCI (HCS) and cellular ATP 3D assay in hLiMTs; settings: for DILI prediction hLiMTs (HCS-MEC): Microtissue model structural based (HCI), combined HCS and ATP, MEC < 25 × Cmax.tot cut-off; for hLiMTs <25x Avg Cmax ATP / hLiMTs <100x Avg Cmaxu ATP: ATP endpoint; for hLiMTs <25x Avg Cmax ATP / hLiMTs <25x Avg Cmax HCS / hLiMTs <25x Avg Cmax All: cut-off <25x Avg Cmax; for hLiMTs <100x Avg Cmaxu ATP / hLiMTs <100x Avg Cmaxu HCS / hLiMTs <100x Avg Cmaxu All: cut-off <100x Avg Cmaxu; for hLiMTs <25x Avg Cmax HCS / hLiMTs <100x Avg Cmaxu HCS: HCS endpoints; for hLiMTs <25x Avg Cmax All: all endpoints (ATP and HCS); for hLiMTs Cmax max All / hLiMTs Cmax min All / hLiMTs <10 uM All / hLiMTs <100x Avg Cmaxu All: all endpoints; for hLiMTs Cmax max All: Cmax max used; for hLiMTs Cmax min All: Cmax min used; for hLiMTs <10 uM All: cut-off <10 uM
PHH = settings: cited from earlier work; for PHH/100xCmax, Proctor (2017) / PHH/100uM, Proctor (2017): 2D PHH, ATP, ref Proctor et al. 2017; for PHH/100xCmax, Proctor (2017): IC50 < 100 × Cmax.tot; for PHH/100uM, Proctor (2017): IC50 threshold 100 µM; for PHH ATP <100uM: In vitro Assay, ref Proctor 2017
[5] = tested on: HepG2 C3A spheroid, BSEP, Glu/Gal in HepG2 cells, bioactivation; settings: cited from earlier work; for Bayesian Machine Learning DILI prediction, Williams (2019): Bayesian modeling, ref Williams et al. 2019; for Bayesian Machine Learning: In vitro Assay, ref Williams 2019
[6] = cited from earlier work; for DILI severity category (Chen et al. [2016]): LTKB DILIrank category; for DILI severity category (Chen et al. [2016]) / DILI severity category (Chen 2016): ref Chen et al. 2016; for DILI severity category (Chen 2016): human DILI classification, LTKB DILIrank
[7] = read-out: Human plasma Cmax; total plasma Cmax.tot, median of 9 literature references; cited from earlier work
[8] = Plasma free fraction (fu) and unbound Cmax (Cmax,u); assay type: in vitro ADME, human; settings: unbound plasma Cmax
Method: The prediction of DILI severity was evaluated further using the 3D combined HCI assays using plasma-free fraction. The majority of fu values were obtained from literature, when unavailable in-house prediction was utilised. Unbound plasma Cmax concentrations (Cmax,u) were derived by multiplying total plasma Cmax with the corresponding free fraction (fu) for each compound.

PHH spheroids = settings: cited from earlier work
human hepatocytes = settings: cited from earlier work
[9] = human DILI severity, ref Chen et al.

CNC1(C)C2CCC(C2)C1(C)C (centres unmarked) [mecamylamine]
85 nM: Human plasma Cmax,u [8]
142 nM: Cmax [7]
No: DILI severity category (Chen et al. [2016]) [6] | DILI severity category (Chen 2016) [6] | DILI severity category [6, 9]
1: Assigned DILI category [2]
0.600: fu [3]
12.2 µM: minimal effective concentration (HepaRG spheroids; Homo sapiens, HepaRG, read-out: HCS endpoint MEC)
vNo-DILI-Concern: DILI severity category ([6]; ref Chen 2016)
-VE: DILI prediction HepaRG spheroids (HCS-MEC) (HepaRG spheroids) | hLiMTs ATP <100uM (hLiMTs [1]) | hLiMTs/100xCmax, Proctor (2017) (hLiMTs [1]) | hLiMTs/100uM, Proctor (2017) (hLiMTs [1]) | In vivo DILI ([2]; […]) | In vivo DILI ([2]; ref Proctor 2017) | In vivo DILI ([2]; ref Williams 2019) | DILI prediction hLiMTs (HCS-MEC) (hLiMTs [4]) | PHH/100xCmax, Proctor (2017) (PHH) | PHH/100uM, Proctor (2017) (PHH) | PHH ATP <100uM (PHH) | Bayesian Machine Learning DILI prediction, Williams (2019) [5] | Bayesian Machine Learning [5] | DILI +VE (5-8), DILI -VE (-4) ([6]; ref Chen 2016)
-ve: HepaRG <25x Avg Cmax ATP (HepaRG spheroids; HepaRG) | HepaRG <100x Avg Cmaxu ATP (HepaRG spheroids; HepaRG) | HepaRG <25x Avg Cmax HCS (HepaRG spheroids; HepaRG) | HepaRG <100x Avg Cmaxu HCS (HepaRG spheroids; HepaRG) | HepaRG <25x Avg Cmax All (HepaRG spheroids; HepaRG) | HepaRG Cmax max All (HepaRG spheroids; HepaRG) | HepaRG Cmax min All (HepaRG spheroids; HepaRG) | HepaRG <10 uM All (HepaRG spheroids; HepaRG) | HepaRG <100x Avg Cmaxu All (HepaRG spheroids; HepaRG) | hLiMTs <25x Avg Cmax ATP (hLiMTs [4]) | hLiMTs <100x Avg Cmaxu ATP (hLiMTs [4]) | hLiMTs <25x Avg Cmax HCS (hLiMTs [4]) | hLiMTs <100x Avg Cmaxu HCS (hLiMTs [4]) | hLiMTs <25x Avg Cmax All (hLiMTs [4]) | hLiMTs Cmax max All (hLiMTs [4]) | hLiMTs Cmax min All (hLiMTs [4]) | hLiMTs <10 uM All (hLiMTs [4]) | hLiMTs <100x Avg Cmaxu All (hLiMTs [4])

CC(C)(C)NCC(O)COc1cccc2c1CC(O)C(O)C2 (centres unmarked) [nadolol]
420 nM: Cmax [7]
Ambiguous: DILI severity category (Chen et al. [2016]) [6] | DILI severity category (Chen 2016) [6] | DILI severity category [6, 9]
-ve: HepaRG <25x Avg Cmax ATP (HepaRG spheroids; HepaRG) | HepaRG <100x Avg Cmaxu ATP (HepaRG spheroids; HepaRG) | HepaRG <25x Avg Cmax HCS (HepaRG spheroids; HepaRG) | HepaRG <100x Avg Cmaxu HCS (HepaRG spheroids; HepaRG) | HepaRG <25x Avg Cmax All (HepaRG spheroids; HepaRG) | HepaRG Cmax max All (HepaRG spheroids; HepaRG) | HepaRG Cmax min All (HepaRG spheroids; HepaRG) | HepaRG <10 uM All (HepaRG spheroids; HepaRG) | HepaRG <100x Avg Cmaxu All (HepaRG spheroids; HepaRG) | hLiMTs <25x Avg Cmax ATP (hLiMTs [4]) | hLiMTs <100x Avg Cmaxu ATP (hLiMTs [4]) | hLiMTs <25x Avg Cmax HCS (hLiMTs [4]) | hLiMTs <100x Avg Cmaxu HCS (hLiMTs [4]) | hLiMTs <25x Avg Cmax All (hLiMTs [4]) | hLiMTs Cmax max All (hLiMTs [4]) | hLiMTs Cmax min All (hLiMTs [4]) | hLiMTs <10 uM All (hLiMTs [4]) | hLiMTs <100x Avg Cmaxu All (hLiMTs [4])
294 nM: Human plasma Cmax,u [8]
-VE: DILI prediction HepaRG spheroids (HCS-MEC) (HepaRG spheroids) | hLiMTs ATP <100uM (hLiMTs [1]) | hLiMTs/100xCmax, Proctor (2017) (hLiMTs [1]) | hLiMTs/100uM, Proctor (2017) (hLiMTs [1]) | hLiMTs ATP <20 x Cmax (PHH spheroids; In vitro Assay, ref Vorrink 2018) | DILI in vitro assay prediction, Vorrink (2018) (PHH spheroids; PHH spheroids, ATP, 14 days, IC20 < 20 × Cmax.tot, ref Vorrink et al. 2018) | In vivo DILI ([2]; ref Proctor 2017) | In vivo DILI ([2]; ref Vorrink 2018) | In vivo DILI ([2]; ref Williams 2019) | In vivo DILI ([2]; ref Xu 2008) | Structural based (HCI) (human hepatocytes; In vitro Assay, ref Xu 2008) | DILI in vitro assay prediction, Xu (2008) (human hepatocytes; Structural based (HCI), human hepatocytes, ref Xu et al. 2008) | DILI prediction hLiMTs (HCS-MEC) (hLiMTs [4]) | PHH/100xCmax, Proctor (2017) (PHH) | PHH/100uM, Proctor (2017) (PHH) | PHH ATP <100uM (PHH) | Bayesian Machine Learning DILI prediction, Williams (2019) [5] | Bayesian Machine Learning [5] | DILI +VE (5-8), DILI -VE (-4) ([6]; ref Chen 2016)
0.700: fu [3]
1: Assigned DILI category [2]
Ambiguous DILI-concern: DILI severity category ([6]; ref Chen 2016)

— publication PMC7395068, “The evolution of strategies to minimise the risk of human drug-induced liver injury (DILI) in drug discovery and development” (Archives of Toxicology, 2020)
